{
  "source": "patent US12595503B2",
  "about": "“Reference dataset-based, spectrometric characterization of cell substrates using sub-libraries” (priority 2021, dated 2026)",
  "tested_on": "E. coli",
  "experiment": "MALDI-TOF (MALDI Biotyper) growth-based resistance/susceptibility determination of the test cell substrate in CTX-containing Mueller-Hinton nutrient medium",
  "parameters": "species or system Escherichia coli",
  "conditions": "CTX 1 μg/mL; for logarithm of the similarity measure (log(score)), best match of second preparation: 4 h incubation",
  "source_text": "As proof of principle for the feasibility of the disclosed procedure, a cefotaxime-susceptible E. coli was selected as the test cell substrate and applied to the determination of a characteristic of the microorganism under investigation using a MALDI Biotyper® system. For this purpose, the resistance/susceptibility of the test cell substrate to a growth-influencing substance, in this example the antibiotic cefotaxime (CTX), was investigated using a prior art method and the method disclosed herein.\nThe test cell substrate was incubated in nutrient medium, Mueller-Hinton nutrient medium (first preparation—FIG. 2), and the same nutrient medium containing CTX at a concentration of 1 μg/mL (second preparation—FIGS. 3 and 4). The first preparation served as a growth control. The second preparation was used to determine the resistance/susceptibility of the test cell substrate to CTX.\nTo create the preparations, a large volume (stock suspension) of a cell suspension, here about 12 mL, otherwise regularly 10 to 50 mL, of the test cell substrate was prepared in Mueller-Hinton nutrient medium, a liquid nutrient medium. The concentration of the test cell substrate in the stock suspension was determined densitometrically in order to use an appropriate and equal amount of the test cell substrate for the first and second preparations. A small volume was taken from this stock suspension for the first preparation and transferred to a well of a microtiter plate. Since the first preparation was designed as a growth control, no antibiotic was present in the well. Simultaneously, for a second preparation, the same volume of stock suspension was removed and transferred to another well of the microtiter plate, thereby dissolving the antibiotic CTX, which was present in dried form in the well of the second preparation, for a final concentration of 1 μg/mL. The microtiter plate was then agitated to ensure complete dissolution and homogeneous distribution of the antibiotic in the cavity of the second preparation. Further preparations in the form of a concentration-dilution series for determining of a minimum inhibitory concentration (MIC) of the antibiotic CTX is easy to generate by selectively dissolving the dried CTX in additional wells of the microtiter plate. For example, a CTX concentration of 0.5 μg/mL can be set in the Mueller-Hinton nutrient medium in a third well for another preparation, and a CTX concentration of 2 μg/mL can be set in a fourth well for yet another preparation. Thus, the dilution series can comprise the CTX concentrations 0.5, 1 and 2 μg/mL, while additional dilution steps, e.g., 0.25 or 4 μg/mL can be included. Such a dilution series can also be performed in dilution steps of different sizes of the CTX concentration. […]",
  "data": [
    {"smiles": "CO/N=C(\\C(=O)N[C@@H]1C(=O)N2C(C(=O)O)=C(COC(C)=O)CS[C@H]12)c1csc(N)n1", "note": "[CTX, cefotaxime]", "values": [
      {"measurement": "logarithm of the similarity measure (log(score)), best match of second preparation", "setting": "compared with entire reference library (prior art method), best match Citrobacter farmeri, >=1.7 read as growth/resistance", "value": 1.83},
      {"measurement": "logarithm of the similarity measure (log(score)), best match of second preparation", "setting": "compared with first sub-library (five best E. coli reference datasets), <1.7 read as no growth/susceptibility", "value": 1.13},
      {"measurement": "property resistance or susceptibility to CTX", "setting": "compared with entire reference library (prior art method), patent calls this result false-positive", "value": "CTX-resistant"},
      {"measurement": "property resistance or susceptibility to CTX", "setting": "compared with first sub-library (method of the invention)", "value": "CTX-susceptible"}
    ]}
  ]
}
